Counter-ions that a name gives are not always drawn.
How the values were obtained:
self-stimulation reward = assay: Self-stimulation reward test; type: in vivo, rats; settings: for Max. DSSR: DSSR 0.3 designated as 100%
From the text: The procedure measured the capacity of a given pharmacological agent to inhibit rats from receiving stimulating currents provided by electrodes implanted in their brains (lateral hypothalamus), Stellar et al, Pharmacol. Biochem. & Behav., 18,433-442 (1983). The animals will press a lever to receive a current from the implanted electrode in preference to all else. The rate at which they press the lever depends on the intensity of the current (reward) that is being produced by the electrode. The intensity of the current is varied by raising the frequency at which […] pulses (0.1 msec duration) are delivered during a 0.5 sec time span in response to a lever press. A plot of the log of the frequency of the delivered pulses vs. the rate of lever presses for an animal gives a self-stimulation reward curve. Injection of a drug which has a tranquilizing effect shifts such a curve to higher frequencies. The shift of this curve (measured at the halfway point) gives a parameter which is expressed as the "Depression of the Self-Stimulation Reward" or DSSR. The maximum DSSR value obtained for the most powerful neutoleptics and tranquilizing compounds tested so far, seldom exceeds 0.3. This is designated as 100%. In the actual tests, the maximum DSSR value obtained for a given dose of drug and the half-life time [duration half-life (DHL)] of its return to 0% (the control state) was measured.

[1] = test system: bicuculline-induced epileptic seizures; assay: Delay of onset of bicuculline-induced seizures (anticonvulsant activity); type: in vivo, mouse; settings: for In Vivo Delay of Time of Onset of Bicuculline-induced seizures: graded 0-5; for effect on bicuculline-induced seizures (in words): mice
Method: In a second behavioral test, the ability of a substance to prevent or delay the onset of biculline-induced epileptic seizures was measured. […] At 24 hr after i.p. injection of the cholesteryl derivative at a dose of 30 mg/kg (64 pmol/kg), the onset of seizures was delayed by 30% after an acute i.p. injection of bicuculline at 0.3 mg/kg. […] The dexamethasone and butyl esters had no effect.
The compounds were also injected i.p. at 1, 6 and 24 hr before the administration of bicuculline (0.3 mg/kg) s.c. The latency to the onset of generalized tonic-clonic epileptic seizures and the protection against the lethality of bicuculline were measured and evaluated as a percent of the data for vehicle-injected controls. No significant changes were obtained at the 1 hr and 6 hr time points. At the 24 hr time, however, some compounds delayed while others accelerated the onset of seizures.
The effect of the compound to delay the onset of a bicuculline-induced seizures was evaluated.
The ability of a substance to delay the onset of bicuculline-induced epileptic seizures in the mouse was measured (Table X). […] At 24 hr after i.p. injection of the cholesteryl derivative (6) at a dose of 30 mg/kg (64 pmol/kg), the onset of seizures was delayed by 30% (as compared to saline controls) after an acute i.p. injection of bicuculline at 0.3 mg/kg. […] The dexamethasone and butyl esters had no effect on seizures in mice.

in vivo = settings: mouse, brain, sc
[2] = Comparative brain/liver uptake of 14C-labeled compounds (Brain Penetration Index); settings: for increase of 5-min BPI over GABA: 5 min after s.c. injection, relative to GABA
Method: The criterion used herein for measuring the extent to which a compound, from which the radical A is derived, crosses the blood-brain barrier is based on the uptake of this compound by the brain relative to its uptake by the liver. […] Measurements of the quantity of a compound present in brain and liver at 5 minutes after a subcutaneous (s.c.) injection were used to calculate a Brain Penetration Index (BPI), with the equation: [formula]
This is the amount of the compound present per gram of brain tissue as a percent of the amount per gram of liver tissue.
This procedure has the advantage that even for a sparingly soluble lipid ester, which tends to remain largely at the site of the injection and slowly diffuse into the circulation, its level in the liver will reflect the amount available rather than the initial dose injected.
The uptake of a ^14C-labeled compound into brain was compared with the uptake into liver of the same animal.
All determinations were carried out at 5 min after injection. The volumes of the injected doses into mice (body weight, 18-24 g) for the i.v., i.p., and s.c. doses were 0.15, 0.3 and 0.5 ml, respectively. […] Each tissue was homogenized in 8 ml of pyridine in a glass homogenizer.
Each labeled test compound was injected as a solution in 0.5 ml of saline (Compound 7) or in 25% propylene glycol in water (Compounds 1, 5, 6) subcutaneously (s.c.) into young adult Balb/c mice (18-24 g body weight). After 5 min (or longer) animals were sacrificed and the brain and liver removed, weighed and homogenized respectively in 8 ml and 10 ml of brain protein solvent (1 % (w/v) sodium dodecyl sulfate in 6 M urea and 19 mM EDTA, pH 7.4, 0.03 M phosphate). Aliquots (0.5 ml) of the homogenates were mixed with 10 ml of Aquasol 2 (New England Nuclear) and counted in a Beckman liquid scintillation counter. The total uptake of each compound per g brain and liver tissue was calculated. The proportion of uptake into brain as compared to liver (100%) of the same animal was designated as the Brain Penetration Index (BPI), expressed as a percentage typically at 5 min after injection.
Each of the ^14C-labeled Compounds 26, 28 and 30 were in 125 µl of the propylene glycol diluted with water up to 0.5 ml, and then injected subcutaneously into test Balb/c mice (20 ± 2 g weight). After 5 min the animals were sacrificed and the brain and liver were removed, weighed and homogenized in 8 ml and 10 ml of brain protein solvent, respectively. Next 0.5 ml aliquots were mixed with 10 ml of Aquasol 2 (New England Nuclear Corp., Boston, MA) and counted in a Beckman liquid scintillation counter. The data for the label in each tissue were used to calculate the total quantity of the compound present in brain and liver per gram of tissue. The ratio of the amount in brain as a percent of that present in liver at 5 min was taken as the Brain Penetration Index (BPI). Measurements at longer uptake times were also obtained to evaluate the accumulation of the compounds in the brain.

[3] = test system: general motor activity of mice; assay: General locomotor activity of mice (Stoelting electronic activity monitor); type: in vivo, Balb/c mice; settings: for activity in the general motor activity test (in words): i.p., mice
Method: The effect of intraperitoneal (i.p.) injections of test compounds on the general motor activity of mice during a 60-min period was determined in a Stoelting electronic activity monitor. Dose-response curves were obtained from which the half-maximally effective values were calculated and the results are shown in Table V.
The compounds were dissolved in 25% (vols.) propylene glycol in water and injected i.p. into Balb/c mice (18-24 g). Dose-response measurements were obtained for 6 animals per dose or time point. Activity was monitored for 60 min using a Stoelting Electronic Activity Monitor (EAM) apparatus to assess the general motor activity of the animals.
The general locomotor activity of mice was measured in the Stolting activity monitor apparatus during 60 min after an intraperitoneal (i.p.) injection of a test compound.

[4] = n-Octanol/water partition coefficient; type: physicochemical; settings: n-octanol/water, 5 ml n-octanol / 5 ml water, stirring 18 hours; read-out: KOW: Octanol/Water Partition Coefficient (converted)
Method: A Partition Coefficient was defined by the equation: [formula] representing the amount of the ester taken up per ml of n-octanol relative to the amount of the same compound taken up per ml of water.
The n-octanol/water partition coefficients were obtained from measurements of the distribution of 1, 3, 5 and 6 pmol quantities of each ^14C-labeled compound into a mixture of 5 ml of n-octanol and 5 ml water. At each concentration, the amount of labeled compound in the aqueous and n-octanol phases was calculated from the amount of radioactive material present after stirring for 18 hours.

CAI pyramidal cells = type: cell-based, Sprague-Dawley rats
Method: Transverse slices of hippocampus (350-375 µm thick) were prepared from Sprague-Dawley rats (200-300 g) and transferred onto a nylon net fixed over a 1.5 ml superfusion chamber. The slices were maintained at 32-33°C in a humidified atmosphere of 95%/5% 02/C02. The standard medium consisted of (in mM): NaCl, 125; KCI, 3.5; CaC12,2; MgS04, 1.5; NaH2PO4, 1; NaHC03, 24; and glucose, 10. Low chloride medium was prepared by substituting sodium isethionate for sodium chloride.
Extracellular potentials were recorded with NaCI-fitted micropipettes, and stimulus pulses were applied through bipolar platinum wire electrodes. The various drugs were dissolved in fresh medium (without glucose and phosphate) and applied to the surface of the tissue by pressure ejection from a micropipette, Sakai, Swartz and Woody, (1979).
The inhibitory effectiveness of various compounds was investigated by measuring their ability to suppress the extracellular population spike recorded from the hippocampal CAI pyramidal layer and elicited by stimulation of stratum radiatum axons. The amplitude of this monosynaptic population spike is essentially proportional to the number of pyramidal cells discharging in response to a stimulus volley, Andersen, Bliss and Skrede, (1971).
The various compounds were applied as droplets to the pyramidal layer approximately 75 µm from the recording electrode. The volume of a single drug application was about 300 picoliters. […] The volume ejected from each pipette was calibrated prior to use by measuring the diameter of the ejected droplet and adjusting the duration of the pressure pulse (usually 100-500 msec) until a standard diameter was reached. A constant droplet volume was used throughout the experiments. Where dose-response information was required, several pipettes with different drug concentrations were used.

[5] = Table IV, 380 μmol/kg s.c., 5 min, mice, mean ± S.E.M. (n = 3)
[6] = Table IX summary, 5-min Brain Penetration Index
[7] = 70 μmol/kg s.c., 5 min, mice, mean ± S.E.M. (n = 3)
[8] = 84 mg/kg, 24 hr pretreatment, bicuculline 0.3 mg/kg, mean ± SEM, n ≥ 6

1-Linolenoyl 2-gamma-aminobutyryl 3-gamma-vinyl-gamma-aminobutyryl glycerol dihydrochloride [Compound 40]
Max. DSSR (self-stimulation reward; dose 16 μm/kg, Depression of the Self-Stimulation Reward): 90 | DHL (self-stimulation reward; dose 16 μm/kg, duration half-life of return to 0%): 30 min

CCCCOC(=O)CCCN [Compound 1, Butyl Ester of GABA]
In Vivo Delay of Time of Onset of Bicuculline-induced seizures [1]: 1 | effect on bicuculline-induced seizures (in words) [1]: no effect | remaining at 1 h (in vivo): 4% | (BRAIN) ([2]; 380 μmol/kg s.c., 60 min, mice): 14.4 nmol/g | (LIVER) ([2]; 380 μmol/kg s.c., 60 min, mice): 13.7 nmol/g | BPI ([2]; 380 μmol/kg s.c., 60 min, mice): 105% | increase of 5-min BPI over GABA [2]: 74 fold | (BRAIN) [2, 5]: 19.2 ± 0.3 nmol/g | (LIVER) [2, 5]: 26.0 ± 1.6 nmol/g | BPI [2, 5]: 74 ± 3.4% | BPI [2, 6]: 74 | activity in the general motor activity test (in words) [3]: not active

C[C@@H]1C[C@H]2[C@@H]3CCC4=CC(=O)C=C[C@]4(C)[C@@]3(F)[C@@H](O)C[C@]2(C)[C@@]1(O)C(=O)COC(=O)CCCN [Compound 7, Dexamethasone-21-gamma-aminobutyrate]
In Vivo Delay of Time of Onset of Bicuculline-induced seizures [1]: 0 | effect on bicuculline-induced seizures (in words) [1]: no effect | (BRAIN) [2, 7]: 8.7 ± 1 nmol/g | (LIVER) [2, 7]: 10.8 ± 2 nmol/g | BPI [2, 7]: 81 ± 20% | (BRAIN) ([2]; 70 μmol/kg s.c., 15 min, mice): 21.5 nmol/g | (LIVER) ([2]; 70 μmol/kg s.c., 15 min, mice): 29.0 nmol/g | BPI ([2]; 70 μmol/kg s.c., 15 min, mice): 74% | increase of 5-min BPI over GABA [2]: 81 fold | BPI [2, 6]: 81 | In Vivo Inhibition of General Motor Activity ([3]; graded 0-5): 0 | activity in the general motor activity test (in words) [3]: not active | logP at 18 h [4]: -0.0458

C=CC(N)CCC(=O)O[C@H]1CC[C@@]2(C)C(=CC[C@H]3[C@@H]4CC[C@H]([C@H](C)CCCC(C)C)[C@@]4(C)CC[C@@H]32)C1 (stereo partly shown) [Compound 33, Cholesteryl gamma-vinyl gamma-aminobutyrate hydrochloride]
Max. DSSR (self-stimulation reward; dose 40 μm/kg): 83 | DHL (self-stimulation reward; dose 40 μm/kg, duration half-life of return to 0%): 1440 to 2880 min

CC(C)CCC[C@@H](C)[C@H]1CC[C@H]2[C@@H]3CC=C4C[C@@H](O)CC[C@]4(C)[C@H]3CC[C@]12C [cholesterol, reference compound]
Onset of seizures: % Saline Control [1, 8]: 118 ± 6 % Saline Control | Survival Time: % Saline Control [1, 8]: 110 ± 7 % Saline Control

C=CC(N)CCC(=O)O (stereo not shown) [gamma-vinyl GABA, reference compound]
Max. DSSR (self-stimulation reward; dose 31 μm/kg): 0 | DHL (self-stimulation reward; dose 31 μm/kg, duration half-life): 0

NCc1cc(=O)[nH]o1 [muscimol]
duration of effect relative to a comparably effective dose of GABA (CAI pyramidal cells): roughly 100 times | effect with picrotoxin (10 µM) in the medium or low chloride medium (CAI pyramidal cells): little effect | doses required relative to GABA for effects of comparable magnitude (CAI pyramidal cells; concentration in the drug pipette): nearly a thousand-fold lower | inhibition of the evoked population spike (CAI pyramidal cells; droplets applied to the CAI pyramidal layer): dose-dependent inhibition

— patent publication EP0133795B1 (THE McLEAN HOSPITAL CORPORATION, priority 1983, dated 1985)
